Data from ChEMBL document CHEMBL6092154, “Design, synthesis, and evaluation of a novel TRAIL-activated HDAC6 inhibitor for the treatment of pulmonary fibrosis” (Bioorg Med Chem, 2024).
Calls of active or inactive are those of the source. The rule behind the calls is not given here.

Assays:
[1] = target: T1, Protein deacetylase HDAC6 (Mus musculus) (UniProt Q9Z2V5); assay: In vivo inhibition of HDAC6 in bleomycin-induced idiopathic pulmonary fibrosis C57BL/6J mouse model assessed as increase in acetylated histone H4 level in lung at 50 mg/kg, ig administered via gavage and measured on day 14 by western blot analysis; assay type: functional, organism-based; details: time 14.0 day
T1 sequence (whole entry): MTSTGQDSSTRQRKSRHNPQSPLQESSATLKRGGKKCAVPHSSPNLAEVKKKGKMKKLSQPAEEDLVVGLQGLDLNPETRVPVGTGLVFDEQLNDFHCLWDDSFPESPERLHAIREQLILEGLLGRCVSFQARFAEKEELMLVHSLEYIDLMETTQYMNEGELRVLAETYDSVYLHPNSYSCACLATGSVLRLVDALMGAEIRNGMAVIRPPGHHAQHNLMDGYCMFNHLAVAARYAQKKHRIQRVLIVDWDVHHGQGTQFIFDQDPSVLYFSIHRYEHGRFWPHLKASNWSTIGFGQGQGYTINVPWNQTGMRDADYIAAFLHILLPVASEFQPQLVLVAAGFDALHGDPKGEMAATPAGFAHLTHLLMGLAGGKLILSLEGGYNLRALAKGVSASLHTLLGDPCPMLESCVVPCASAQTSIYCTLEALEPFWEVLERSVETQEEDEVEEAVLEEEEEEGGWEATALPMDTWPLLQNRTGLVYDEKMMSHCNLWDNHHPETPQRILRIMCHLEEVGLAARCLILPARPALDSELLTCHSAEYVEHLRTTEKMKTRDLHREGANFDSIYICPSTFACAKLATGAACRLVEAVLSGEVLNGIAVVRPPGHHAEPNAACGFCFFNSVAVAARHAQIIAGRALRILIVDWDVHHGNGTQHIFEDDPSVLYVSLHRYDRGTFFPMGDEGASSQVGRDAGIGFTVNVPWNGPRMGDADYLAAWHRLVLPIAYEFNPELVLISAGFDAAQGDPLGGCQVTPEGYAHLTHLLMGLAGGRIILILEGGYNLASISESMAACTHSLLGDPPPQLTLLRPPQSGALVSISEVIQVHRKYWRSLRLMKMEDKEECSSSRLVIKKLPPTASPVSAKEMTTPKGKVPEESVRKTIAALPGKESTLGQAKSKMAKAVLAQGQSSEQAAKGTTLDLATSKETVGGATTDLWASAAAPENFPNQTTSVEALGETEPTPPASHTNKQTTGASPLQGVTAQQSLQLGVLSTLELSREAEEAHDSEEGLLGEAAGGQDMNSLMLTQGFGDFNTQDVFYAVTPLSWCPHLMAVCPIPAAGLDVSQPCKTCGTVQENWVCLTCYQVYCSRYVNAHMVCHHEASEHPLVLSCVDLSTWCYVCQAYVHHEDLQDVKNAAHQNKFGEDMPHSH

[2] = Toxicity against silicosis C57BL/6J mouse model assessed as effect on heart morphological changes at 50 mg/kg, ig administered daily via gavage and measured on day 28 by Hematoxylin-Eosin staining based analysis; assay type: organism-based; details: in vivo, po, 672 h, time 28 day
[3] = Toxicity against bleomycin-induced pulmonary fibrosis C57BL/6J mouse model assessed as increase AST index in serum at 50 mg/kg, ig administered daily via gavage and measured on day 14; assay type: organism-based; details: in vivo, po, 336 h, time 14 day
[4] = target: T2, Protein deacetylase HDAC6 (Homo sapiens) (UniProt Q9UBN7); assay: Inhibition of HDAC6 in human RPMI-8226 cells assessed as increase in acetylated alpha-tubulin level at 0.25 to 1 uM incubated for 24 hrs by western blot analysis; assay type: cell-based; details: dose 0.25-1 µM
T2 sequence (whole entry): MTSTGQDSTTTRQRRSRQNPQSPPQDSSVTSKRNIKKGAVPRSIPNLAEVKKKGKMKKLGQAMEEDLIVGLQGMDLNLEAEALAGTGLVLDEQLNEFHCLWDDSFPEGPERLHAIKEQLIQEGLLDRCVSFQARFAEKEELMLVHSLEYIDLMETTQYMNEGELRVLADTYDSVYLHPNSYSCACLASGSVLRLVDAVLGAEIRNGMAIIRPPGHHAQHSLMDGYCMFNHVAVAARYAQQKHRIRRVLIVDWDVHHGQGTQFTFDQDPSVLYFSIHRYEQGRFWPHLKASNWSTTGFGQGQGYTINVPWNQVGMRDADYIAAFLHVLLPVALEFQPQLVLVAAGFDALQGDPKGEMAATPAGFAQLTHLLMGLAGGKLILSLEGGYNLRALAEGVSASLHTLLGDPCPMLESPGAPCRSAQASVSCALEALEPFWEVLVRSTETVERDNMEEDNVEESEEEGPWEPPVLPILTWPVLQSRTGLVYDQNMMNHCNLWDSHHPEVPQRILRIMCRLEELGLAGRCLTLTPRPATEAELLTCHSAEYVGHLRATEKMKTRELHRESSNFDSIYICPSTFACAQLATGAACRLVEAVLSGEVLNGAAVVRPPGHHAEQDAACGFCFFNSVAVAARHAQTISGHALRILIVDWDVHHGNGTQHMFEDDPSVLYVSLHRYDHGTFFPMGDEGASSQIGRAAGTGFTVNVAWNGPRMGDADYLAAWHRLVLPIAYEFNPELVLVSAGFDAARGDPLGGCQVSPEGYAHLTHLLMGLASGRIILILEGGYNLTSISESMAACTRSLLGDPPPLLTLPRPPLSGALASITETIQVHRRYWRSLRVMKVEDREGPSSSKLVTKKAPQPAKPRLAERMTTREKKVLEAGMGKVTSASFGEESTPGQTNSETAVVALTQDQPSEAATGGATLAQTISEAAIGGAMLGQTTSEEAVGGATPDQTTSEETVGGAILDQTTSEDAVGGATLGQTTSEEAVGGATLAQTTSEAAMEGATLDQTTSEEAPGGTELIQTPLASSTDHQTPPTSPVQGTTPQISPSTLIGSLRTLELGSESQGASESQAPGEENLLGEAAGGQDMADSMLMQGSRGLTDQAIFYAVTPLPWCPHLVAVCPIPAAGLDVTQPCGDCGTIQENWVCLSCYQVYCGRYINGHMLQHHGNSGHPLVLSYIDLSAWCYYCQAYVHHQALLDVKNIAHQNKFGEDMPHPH

[5] = test system: RPMI-8226; assay: Antiproliferative activity against human RPMI-8226 cells assessed as inhibition of cell growth incubated for 24 to 48 hrs by CCK8 assay; assay type: functional, cell-based
[6] = test system: Mus musculus; assay: Anti-pulmonary fibrosis activity in bleomycin-induced idiopathic pulmonary fibrosis C57BL/6J mouse model assessed as decrease in lung damage by measuring decrease in inflammatory cell infiltration in lung at 25 to 50 mg/kg, ig administered daily via gavage and measured on day 14 by Hematoxylin-Eosin staining based analysis; assay type: functional, organism-based; details: dose 25-50 mg/kg, time 14.0 day
[7] = Toxicity against silicosis C57BL/6J mouse model assessed as uric acid level in serum at 50 mg/kg, ig administered daily via gavage and measured on day 28; assay type: organism-based; details: in vivo, po, 672 h, time 28 day
[8] = test system: RPMI-8226; assay: Increase in DR5 protein expression in human RPMI-8226 cells incubated for 24 hrs by western blot analysis; assay type: functional, cell-based; details: dose 0.25-1 µM
[9] = Toxicity against silicosis C57BL/6J mouse model assessed as effect on spleen morphological changes at 50 mg/kg, ig administered daily via gavage and measured on day 28 by Hematoxylin-Eosin staining based analysis; assay type: organism-based; details: in vivo, po, 672 h, time 28 day

inhibition [4]: Active
IC50 [5]: 440 nM
SMILES: O=C(NO)c1ccc(CN2C(=O)C3=C(CCN(Cc4cccc(Cl)c4)C3)N3CCN=C23)cc1
inhibition [1]: Active; Levels Lower Than The Positive Control, Acy-1215
Activity [2]: Non-toxic
Activity [3]: Toxic
Activity [6]: Active
Activity [7]: Non-toxic
Activity [8]: Dose-dependent-effect; Higher Activity Compared To Positive Drug, 1 Um Compound Iic, Chidamide, Acy-1215
Activity [9]: Non-toxic
